# Values joined by “and” are separate entries in the source; they are usually repeats but may differ in a detail not shown here. Identical values can stand only once. Like-named read-outs stand apart in the source and are kept apart here.
# What was measured:
# [1] = design: method as in PMID 28665154; settings: cited from earlier work
# [2] = test system: cress; design: method as in doi:10.1134/S0036023620090089; settings: 0.03 mg L^−1 ref 12; cited from earlier work
# [3] = test system: CaCo-2; design: method as in doi:10.1039/C4TX00079J; settings: CaCo-2 ref 39; cited from earlier work
# [4] = test system: NIH/3T3; design: method as in doi:10.1039/C4TX00079J; settings: NIH/3T3 ref 39; cited from earlier work
# [5] = test system: C. albicans ATCC 10231; test: Antimicrobial activity, broth microdilution MIC/MBC; format: cell-based, Candida albicans; settings: nd—not detected; for MIC (%): C. albicans ATCC 10231, 24 h at 37 °C, at least 90% growth inhibition
# [6] = test system: E. coli ATCC 8739; test: as above; format: cell-based, Escherichia coli; settings: nd—not detected; for MIC (%): E. coli ATCC 8739, 24 h at 37 °C, at least 90% growth inhibition; for MBC (%): E. coli ATCC 8739
# [7] = test system: L929 fibroblasts; test: Mammalian cell cytotoxicity screening, resazurin viability; format: cell-based, mouse
# [8] = test system: Lepidium sativum L. seeds; settings: 24 h incubation, mean(±SD), n = 3
# [9] = test system: S. aureus ATCC 6538; test: Antimicrobial activity, broth microdilution MIC/MBC; format: cell-based, Staphylococcus aureus; settings: S. aureus ATCC 6538, 24 h at 37 °C, at least 90% growth inhibition; nd—not detected
# [10] = test system: Lepidium sativum L. roots; settings: 24 h incubation, mean(±SD), n = 3
# [11] = test system: cress; design: method as in PMID 19052732; settings: cress seed, highest concentration of 1000 mg L^−1 ref 17; cited from earlier work
# [12] = 0.01% (w/w) compound in the medium
# [13] = 0.03% (w/w) compound in the medium
# [14] = 0.05% (w/w) compound in the medium
# [15] = 0.10% (w/w) compound in the medium
# [16] = 0.30% (w/w) compound in the medium
# [17] = 0.50% (w/w) compound in the medium
# [18] = 1.00% (w/w) compound in the medium
# [19] = 2.00% (w/w) compound in the medium
# [20] = 3.00% (w/w) compound in the medium
# [21] = 4.00% (w/w) compound in the medium
# [22] = 5.00% (w/w) compound in the medium
smiles,measurement,setting,value
C[N+](C)(C)CCO.NC(Cc1ccccc1)C(=O)[O-] (stereo not shown) [[Cho][Phe]],IC50,[1],0.42 % (v/v)
O=C(O)c1ccccc1O.OCCN(CCO)CCO [TEA salicylate],effect on root and shoot length,[2],significant inhibition effect
C[N+](C)(C)CCO.N[C@@H](CCC(=O)O)C(=O)[O-] [[Cho][Glu]],IC50,[1],0.43 % (v/v)
CCCCn1cc[n+](C)c1 [[BMIM][BF4]],IC50,[3],11.2 mM
same,IC50,[4],11.3 mM
CCCCn1cc[n+](C)c1 [[BMIM][(L)-Lac]],IC50,[3],19.2 mM
same,IC50,[4],33.6 mM
N[C@@H](CC(=O)O)C(=O)O.OCCN(CCO)CCO [[TEA][Asp]],MIC (%),[5],15%
same,MBC (%),[5]; C. albicans ATCC 10231,15%
same,MIC (%),[6],7.50%
same,MBC (%),[6],15%
same,ED20,[7]; 24h exposure,0.47±0.03%
same,ED50,[7]; 24h exposure,0.66±0.03%
same,ED80,[7]; 24h exposure,0.86±0.09%
same,ED20,[7]; 48h exposure,0.30±0.02%
same,ED50,[7]; 48h exposure,0.50±0.01%
same,ED80,[7]; 48h exposure,0.71±0.01%
same,"Inhibition of the Lepidium sativum seeds germination (ISG, %)",[8]; [12],0.0(±0.0) %
same,"Inhibition of the Lepidium sativum seeds germination (ISG, %)",[8]; [13],0.0(±0.0) %
same,"Inhibition of the Lepidium sativum seeds germination (ISG, %)",[8]; [14],0.0(±0.0) %
same,"Inhibition of the Lepidium sativum seeds germination (ISG, %)",[8]; [15],0.0(±0.0) %
same,"Inhibition of the Lepidium sativum seeds germination (ISG, %)",[8]; [16],0.0(±0.0) %
same,"Inhibition of the Lepidium sativum seeds germination (ISG, %)",[8]; [17],0.0(±0.0) %
same,"Inhibition of the Lepidium sativum seeds germination (ISG, %)",[8]; [18],0.0(±0.0) %
same,"Inhibition of the Lepidium sativum seeds germination (ISG, %)",[8]; [19],0.0(±0.0) %
same,"Inhibition of the Lepidium sativum seeds germination (ISG, %)",[8]; [20],3.5%
same,"Inhibition of the Lepidium sativum seeds germination (ISG, %)",[8]; [21],16.2(±1.3) %
same,MIC (%),[9],15%
same,"Inhibition of the root growth in pregerminated Lepidium sativum seeds (IRG, %)",[10]; [12],0.0(±0.0) % and 0%
same,"Inhibition of the root growth in pregerminated Lepidium sativum seeds (IRG, %)",[10]; [13],0.0(±0.0) % and 0%
same,"Inhibition of the root growth in pregerminated Lepidium sativum seeds (IRG, %)",[10]; [14],0.0(±0.0) % and 0%
same,"Inhibition of the root growth in pregerminated Lepidium sativum seeds (IRG, %)",[10]; [15],0.0(±0.0) % and 0%
same,"Inhibition of the root growth in pregerminated Lepidium sativum seeds (IRG, %)",[10]; [16],9.1%
same,"Inhibition of the root growth in pregerminated Lepidium sativum seeds (IRG, %)",[10]; [17],12.9%
same,"Inhibition of the root growth in pregerminated Lepidium sativum seeds (IRG, %)",[10]; [19],43.9(±1.3) %
same,"Inhibition of the root growth in pregerminated Lepidium sativum seeds (IRG, %)",[10]; [20],44.2(±1.0) %
same,"Inhibition of the root growth in pregerminated Lepidium sativum seeds (IRG, %)",[10]; [21],56.3(±1.0) %
same,"Inhibition of the root growth in pregerminated Lepidium sativum seeds (IRG, %)",[10]; [22],68.3%
NCCCC[C@H](N)C(=O)O.OCCN(CCO)CCO [[TEA][Lys]],MIC (%),[5],0.94%
same,MIC (%),[6],0.94%
same,MBC (%),[6],3.75%
same,ED20,[7]; 24h exposure,0.23±0.01%
same,ED50,[7]; 24h exposure,0.43±0.01%
same,ED80,[7]; 24h exposure,0.69±0.02%
same,ED20,[7]; 48h exposure,0.21±0.01%
same,ED50,[7]; 48h exposure,0.33±0.01%
same,ED80,[7]; 48h exposure,0.46±0.01%
same,"Inhibition of the Lepidium sativum seeds germination (ISG, %)",[8]; [12],0.0(±0.0) %
same,"Inhibition of the Lepidium sativum seeds germination (ISG, %)",[8]; [13],0.0(±0.0) %
same,"Inhibition of the Lepidium sativum seeds germination (ISG, %)",[8]; [14],0.0(±0.0) %
same,"Inhibition of the Lepidium sativum seeds germination (ISG, %)",[8]; [15],0.0(±0.0) %
same,"Inhibition of the Lepidium sativum seeds germination (ISG, %)",[8]; [16],0.0(±0.0) %
same,"Inhibition of the Lepidium sativum seeds germination (ISG, %)",[8]; [17],0.0(±0.0) %
same,"Inhibition of the Lepidium sativum seeds germination (ISG, %)",[8]; [18],1.9(±0.8) %
same,"Inhibition of the Lepidium sativum seeds germination (ISG, %)",[8]; [19],11.5%
same,"Inhibition of the Lepidium sativum seeds germination (ISG, %)",[8]; [20],38.5%
same,"Inhibition of the Lepidium sativum seeds germination (ISG, %)",[8]; [21],57.7(±3.1) %
same,MIC (%),[9],1.88%
same,"Inhibition of the root growth in pregerminated Lepidium sativum seeds (IRG, %)",[10]; [12],9.2(±1.9) %
same,"Inhibition of the root growth in pregerminated Lepidium sativum seeds (IRG, %)",[10]; [13],14.6(±2.1) %
same,"Inhibition of the root growth in pregerminated Lepidium sativum seeds (IRG, %)",[10]; [14],20.0(±1.9) %
same,"Inhibition of the root growth in pregerminated Lepidium sativum seeds (IRG, %)",[10]; [15],24.5(±1.9) %
same,"Inhibition of the root growth in pregerminated Lepidium sativum seeds (IRG, %)",[10]; [16],52.7(±1.7) %
same,"Inhibition of the root growth in pregerminated Lepidium sativum seeds (IRG, %)",[10]; [17],62.3(±1.2) %
same,"Inhibition of the root growth in pregerminated Lepidium sativum seeds (IRG, %)",[10]; [18],63.5(±0.9) %
same,"Inhibition of the root growth in pregerminated Lepidium sativum seeds (IRG, %)",[10]; [19],78.9(±0.8) %
same,"Inhibition of the root growth in pregerminated Lepidium sativum seeds (IRG, %)",[10]; [20],84.9(±0.8) %
same,"Inhibition of the root growth in pregerminated Lepidium sativum seeds (IRG, %)",[10]; [21],90.2(±0.6) %
same,"Inhibition of the root growth in pregerminated Lepidium sativum seeds (IRG, %)",[10]; [22],94.9(±0.5) %
CCCCCCn1cc[n+](C)c1.[Cl-] [[HMIM][Cl]],decrease in germination,[11],100%

# — article PMC12029836, “Phytotoxicity, Cytotoxicity, and Antimicrobial Activity of Triethanolammonium Amino Acids Salts” (Molecules, 2025)
